These results are taken from the NIST ThermoML archive (doi:10.1016/j.fluid.2014.01.019).

Structures are written as SMILES. ± gives the expanded uncertainty stated by the source.

The conditions of this series: Liquid; for mass density: 101.33 kPa, Vibrating tube method; for speed of sound: 101 kPa, Frequency=2 MHz, Linear variable-path acoustic interferometer.

On to `Cc1ccccc1Cl` [2-chlorotoluene], for which the mass density (as a rule, the mass of a sample divided by its volume) is, setting by setting: (298.15 K) 1076.47 ± 0.15 kg/m3; (303.15 K) 1072.86 ± 0.15 kg/m3; (308.15 K) 1068.21 ± 0.15 kg/m3; (313.15 K) 1064.01 ± 0.15 kg/m3. For the same compound, the speed of sound (usually the propagation velocity of pressure waves in the medium) is given as 1285 ± 8 m/s (303.15 K) and 1248 ± 8 m/s (313.15 K).
For `Cc1ccccc1[N+](=O)[O-]` [2-nitrotoluene], the mass density is, setting by setting: (298.15 K) 1159.6 ± 0.19 kg/m3; (303.15 K) 1153.29 ± 0.18 kg/m3; (308.15 K) 1149.78 ± 0.18 kg/m3; (313.15 K) 1144.91 ± 0.18 kg/m3. Also, the speed of sound (303.15 K) is 1439 ± 9 m/s and the speed of sound (313.15 K) is recorded as 1403 ± 9 m/s.
For the compound `Cc1cccc(Cl)c1` [3-chlorotoluene], the mass density was 1067.25 ± 0.15 kg/m3 (298.15 K), 1062.79 ± 0.15 kg/m3 (303.15 K), 1058.29 ± 0.15 kg/m3 (308.15 K) and 1053.49 ± 0.15 kg/m3 (313.15 K). The speed of sound is, setting by setting: (303.15 K) 1281 ± 8 m/s; (313.15 K) 1247 ± 8 m/s.
As for `Cc1cccc([N+](=O)[O-])c1` [3-nitrotoluene], the mass density is on record as 1152.23 ± 0.18 kg/m3 (298.15 K), 1147.67 ± 0.18 kg/m3 (303.15 K), 1142.67 ± 0.18 kg/m3 (308.15 K) and 1137.98 ± 0.18 kg/m3 (313.15 K). For the same compound, the speed of sound stood at 1442 ± 9 m/s (303.15 K) and 1409 ± 9 m/s (313.15 K).
As for `Cc1ccc(Cl)cc1` [4-chlorotoluene], the mass density is, setting by setting: (298.15 K) 1064.93 ± 0.16 kg/m3; (303.15 K) 1059.56 ± 0.16 kg/m3; (308.15 K) 1054.27 ± 0.15 kg/m3; (313.15 K) 1049.29 ± 0.15 kg/m3. In addition, the speed of sound was found to be 1274 ± 8 m/s (303.15 K) and 1237 ± 8 m/s (313.15 K).
For `OCc1ccccc1` [benzenemethanol], the mass density is 1041.44 ± 0.14 kg/m3 (298.15 K), 1037.67 ± 0.14 kg/m3 (303.15 K), 1033.75 ± 0.14 kg/m3 (308.15 K) and 1029.91 ± 0.14 kg/m3 (313.15 K). The speed of sound (303.15 K) was determined as 1514 ± 9 m/s and the speed of sound (313.15 K) is recorded as 1485 ± 9 m/s.
